From ChEMBL document CHEMBL5442379, “ASAP - SARS-CoV-2 nsp3 macrodomain single point” (2024)

Target: Replicase polyprotein 1ab (Severe acute respiratory syndrome coronavirus 2) (UniProt P0DTD1)
Description: Functional biochemical assay to identify treatments for viral infectious disease that targets SARS-COV-2 nsp3 macrodomain, whereby the mechanism of action displaces an ADP-Ribose modified peptide from the binding site. Utilizing a time-resolved fluorescence method to measure binding by reading the emitted fluorescence intensity in two wavelengths.

## O=C(c1ccc(O)nc1)N1CCC(c2ccn3ncc(C(=O)N4CCCCC4)c3c2)CC1
Concentration 49.75 uM, Number of replicates 2.0, Standard deviation 5.093 %
  inhibition: 11%
Concentration 99.5 uM, Number of replicates 2.0, Standard deviation 0.548 %
  inhibition: 26.5%

## CC(C)[C@@H](Nc1ncnc2[nH]ccc12)c1cccs1
Concentration 49.75 uM, Number of replicates 2.0, Standard deviation 1.872 %
  inhibition: 84.7%
Concentration 99.5 uM, Number of replicates 2.0, Standard deviation 2.645 %
  inhibition: 89.9%

## Cc1ncc(C(=O)N(CCC(=O)N2CCNCC2)Cc2cccc(Cl)c2)cc1N
Concentration 49.75 uM, Number of replicates 2.0, Standard deviation 3.028 %
  inhibition: 1.35%
Concentration 99.5 uM, Number of replicates 2.0, Standard deviation 0.599 %
  inhibition: 1.3%

## C[C@@H](Cc1ccc(Cl)s1)Nc1ccc([C@@H](CC(=O)O)NC(=O)c2c[nH]c3ncncc23)cc1
Concentration 49.75 uM, Number of replicates 2.0, Standard deviation 2.68 %
  inhibition: -1.54%
Concentration 99.5 uM, Number of replicates 2.0, Standard deviation 2.267 %
  inhibition: 1.95%

## CC(C)[C@@H]1[C@H](O)CCN1c1ncnc2[nH]ccc12
Concentration 49.75 uM, Number of replicates 2.0, Standard deviation 3.675 %
  inhibition: 17.7%
Concentration 99.5 uM, Number of replicates 2.0, Standard deviation 0.827 %
  inhibition: 32.1%

## O=C(Nc1ccccc1)Nc1ccc(C(=O)N[C@H]2CC[C@H](CO)CC2)cc1
Concentration 49.75 uM, Number of replicates 2.0, Standard deviation 1.388 %
  inhibition: -0.639%
Concentration 99.5 uM, Number of replicates 2.0, Standard deviation 3.79 %
  inhibition: -2.58%

## O=C(O)c1cnc(C(=O)N2CCC(c3ccn4ncc(C(=O)N5CCCCC5)c4c3)CC2)cn1
Concentration 49.75 uM, Number of replicates 2.0, Standard deviation 0.482 %
  inhibition: 27.5%
Concentration 99.5 uM, Number of replicates 2.0, Standard deviation 1.164 %
  inhibition: 46.4%

## CC(C)[C@H]1N(c2ncnc3[nH]ccc23)CC12CCOCC2
Concentration 49.75 uM, Number of replicates 2.0, Standard deviation 0.024 %
  inhibition: 27.6%
Concentration 99.5 uM, Number of replicates 2.0, Standard deviation 0.45 %
  inhibition: 48%

## CN(Cc1nccn1Cc1ccccc1)c1ncnc2[nH]ccc12
Concentration 50.0 uM, Number of replicates 2.0, Standard deviation 2.394 %
  inhibition: -7.22%
Concentration 100.0 uM, Number of replicates 2.0, Standard deviation 1.584 %
  inhibition: -8.82%

## Cc1ncc(NCc2csc(-c3ccccn3)n2)cn1
Concentration 49.75 uM, Number of replicates 2.0, Standard deviation 3.788 %
  inhibition: -5.23%
Concentration 99.5 uM, Number of replicates 2.0, Standard deviation 2.632 %
  inhibition: -4.49%

## Cc1cccc(Cl)c1-n1sc(=O)n(CC2CC2)c1=O
Concentration 50.0 uM, Number of replicates 2.0, Standard deviation 1.233 %
  inhibition: 51.9%

## O=C(CCN(Cc1cccc(Cl)c1)C(=O)C1(F)CCCCC1)N1CCNCC1
Concentration 49.75 uM, Number of replicates 2.0, Standard deviation 2.579 %
  inhibition: -3.58%
Concentration 99.5 uM, Number of replicates 2.0, Standard deviation 1.426 %
  inhibition: 0.185%

## Cc1[nH]c2ncnc(NC(=O)[C@@H]3CCO[C@@H]3C)c2c1C
Concentration 50.0 uM, Number of replicates 2.0, Standard deviation 0.696 %
  inhibition: 35.1%

## CN(Cc1cn(C)nn1)C(=O)c1cnn2ccc(C3CCN(C(=O)c4ccccc4)CC3)cc12
Concentration 49.75 uM, Number of replicates 2.0, Standard deviation 4.768 %
  inhibition: 2.17%
Concentration 99.5 uM, Number of replicates 2.0, Standard deviation 1.859 %
  inhibition: 1.34%

## CSc1ccccc1NC(=O)c1ncnc2[nH]ccc12
Concentration 50.0 uM, Number of replicates 2.0, Standard deviation 3.62 %
  inhibition: -5.8%

## c1nc(N2CCC[C@@H](c3nc4c(s3)CCC4)C2)c2c[nH]nc2n1
Concentration 50.0 uM, Number of replicates 2.0, Standard deviation 1.131 %
  inhibition: 3.83%

## CC(C)[C@@H]1C(=O)NCCN1c1ncnc2[nH]ccc12
Concentration 49.75 uM, Number of replicates 2.0, Standard deviation 1.976 %
  inhibition: 61.4%
Concentration 99.5 uM, Number of replicates 2.0, Standard deviation 0.754 %
  inhibition: 80.7%

## C[C@@H](Nc1ncnc2[nH]ccc12)c1cnn(Cc2ccccc2)c1
Concentration 49.75 uM, Number of replicates 2.0, Standard deviation 0.659 %
  inhibition: -4.11%
Concentration 99.5 uM, Number of replicates 2.0, Standard deviation 0.985 %
  inhibition: 3.18%

## C[C@@H](NC(=O)c1ncnc2[nH]ccc12)c1ncc(C(=O)O)c(=O)[nH]1
Concentration 49.75 uM, Number of replicates 2.0, Standard deviation 2.226 %
  inhibition: 4.87%
Concentration 99.5 uM, Number of replicates 2.0, Standard deviation 1.623 %
  inhibition: 10.7%

## COC[C@@H](Nc1ncnc2nc[nH]c12)c1ccc(C)o1
Concentration 49.75 uM, Number of replicates 2.0, Standard deviation 2.621 %
  inhibition: -4.64%
Concentration 99.5 uM, Number of replicates 2.0, Standard deviation 0.049 %
  inhibition: 3.94%

## O=C(c1ccccc1)N1CCC(c2ccn3ncc(C(=O)N4CCc5cccnc54)c3c2)CC1
Concentration 49.75 uM, Number of replicates 2.0, Standard deviation 3.564 %
  inhibition: -4.67%
Concentration 99.5 uM, Number of replicates 2.0, Standard deviation 0.208 %
  inhibition: -8.02%

## c1ccc(-c2cc(CNc3ncnc4[nH]ccc34)on2)cc1
Concentration 50.0 uM, Number of replicates 2.0, Standard deviation 8.772 %
  inhibition: 7.14%
Concentration 100.0 uM, Number of replicates 2.0, Standard deviation 1.845 %
  inhibition: -3.46%

## Cc1[nH]c2ncnc(NC(=O)c3ncn(-c4ccccc4)n3)c2c1C
Concentration 50.0 uM, Number of replicates 2.0, Standard deviation 1.407 %
  inhibition: 7.1%

## c1cc(CNc2ncnc3nc[nH]c23)n2ncnc2c1
Concentration 50.0 uM, Number of replicates 2.0, Standard deviation 1.124 %
  inhibition: 1.35%
Concentration 100.0 uM, Number of replicates 2.0, Standard deviation 5.338 %
  inhibition: 10%

## COCc1cc(CNc2cc3c(O)ncnc3cn2)no1
Concentration 50.0 uM, Number of replicates 2.0, Standard deviation 0.223 %
  inhibition: 3.31%

## O=C(Nc1ccccc1)Nc1ccc(C(=O)Nc2cnnc(Cl)c2)cc1
Concentration 49.75 uM, Number of replicates 2.0, Standard deviation 1.096 %
  inhibition: -1.72%
Concentration 99.5 uM, Number of replicates 2.0, Standard deviation 2.694 %
  inhibition: -0.19%

## Cc1cccc(C)c1-n1nnnc1CSc1ncnc2[nH]cnc12
Concentration 50.0 uM, Number of replicates 2.0, Standard deviation 4.544 %
  inhibition: 6.63%

## NCC(F)(F)CNC(=O)c1ccc(NC(=O)Nc2ccccc2)cc1
Concentration 49.75 uM, Number of replicates 2.0, Standard deviation 4.8 %
  inhibition: -0.965%
Concentration 99.5 uM, Number of replicates 2.0, Standard deviation 1.089 %
  inhibition: -1.17%

## CSc1cccc(NC(=O)c2ncnc3[nH]ccc23)c1
Concentration 50.0 uM, Number of replicates 2.0, Standard deviation 4.41 %
  inhibition: -4.67%

## Cc1cccc([C@@H]2CCCN2c2ncnc3[nH]ccc23)n1
Concentration 50.0 uM, Number of replicates 2.0, Standard deviation 4.141 %
  inhibition: 0.182%

## CCc1nc(CN(C)c2nc(C)nc3[nH]ccc23)cs1
Concentration 50.0 uM, Number of replicates 2.0, Standard deviation 3.767 %
  inhibition: -6.13%

## O=C(Nc1ccccc1)Nc1ccc(C(=O)NCCc2cccnc2)cc1
Concentration 49.75 uM, Number of replicates 2.0, Standard deviation 2.77 %
  inhibition: 1.27%
Concentration 99.5 uM, Number of replicates 2.0, Standard deviation 0.373 %
  inhibition: 10.4%

## OCc1cn([C@@H]2CCCN(c3ncnc4[nH]ccc34)C2)nn1
Concentration 50.0 uM, Number of replicates 2.0, Standard deviation 2.708 %
  inhibition: -0.682%

## Cc1n[nH]cc1CN(C)C(=O)c1ccc(NC(=O)Nc2ccccc2)cc1
Concentration 49.75 uM, Number of replicates 2.0, Standard deviation 4.474 %
  inhibition: -3.77%
Concentration 99.5 uM, Number of replicates 2.0, Standard deviation 2.774 %
  inhibition: -0.031%

## CCc1n[nH]c(NC(=O)c2ccc(NC(=O)Nc3ccccc3)cc2)c1Br
Concentration 49.75 uM, Number of replicates 2.0, Standard deviation 2.077 %
  inhibition: -5.57%
Concentration 99.5 uM, Number of replicates 2.0, Standard deviation 0.313 %
  inhibition: 0.467%

## O=C(O)c1cscc1C(=O)N1CCC(c2ccn3ncc(C(=O)N4CCCCC4)c3c2)CC1
Concentration 50.0 uM, Number of replicates 2.0, Standard deviation 2.729 %
  inhibition: 47.7%
Concentration 100.0 uM, Number of replicates 2.0, Standard deviation 0.311 %
  inhibition: 66.7%

## O=C(Nc1ccccc1)Nc1ccc(C(=O)Nc2nnc(C(F)(F)F)[nH]2)cc1
Concentration 49.75 uM, Number of replicates 2.0, Standard deviation 1.534 %
  inhibition: -3.2%
Concentration 99.5 uM, Number of replicates 2.0, Standard deviation 0.592 %
  inhibition: -1.46%

## O=C(c1ccncc1)N1CCC(c2ccn3ncc(C(=O)N4CCCCC4)c3c2)CC1
Concentration 49.75 uM, Number of replicates 2.0, Standard deviation 1.966 %
  inhibition: 10.8%
Concentration 99.5 uM, Number of replicates 2.0, Standard deviation 0.415 %
  inhibition: 26.5%

## CC(C)[C@@H](CCN(C)C(=O)C1CCc2ccccc2CC1)Nc1ncnc2[nH]ccc12
Concentration 49.75 uM, Number of replicates 2.0, Standard deviation 5.252 %
  inhibition: -5.62%

## CC(C)n1ncnc1CNc1cc2c(=O)nc[nH]c2cn1
Concentration 50.0 uM, Number of replicates 2.0, Standard deviation 0.347 %
  inhibition: -1.49%

## O=C(c1cc(O)ccn1)N1CCC(c2ccn3ncc(C(=O)N4CCCCC4)c3c2)CC1
Concentration 49.75 uM, Number of replicates 2.0, Standard deviation 1.167 %
  inhibition: 17.6%
Concentration 99.5 uM, Number of replicates 2.0, Standard deviation 1.673 %
  inhibition: 32.2%

## Cc1[nH]c2ncnc(NC(=O)C3CCC(F)(F)CC3)c2c1C
Concentration 50.0 uM, Number of replicates 2.0, Standard deviation 0.519 %
  inhibition: 2.15%

## CCn1cc(CNc2nc3[nH]cnc3c(=O)[nH]2)nn1
Concentration 50.0 uM, Number of replicates 2.0, Standard deviation 3.758 %
  inhibition: -0.991%

## O=C(N[C@H]1CCC[C@H]1C(=O)O)c1cnn2ccc(C3CCN(C(=O)c4ccccc4)CC3)cc12
Concentration 49.75 uM, Number of replicates 2.0, Standard deviation 2.492 %
  inhibition: 59.6%
Concentration 99.5 uM, Number of replicates 2.0, Standard deviation 0.074 %
  inhibition: 73.5%

## Cc1[nH]nc(C(=O)N2CCC(c3ccn4ncc(C(=O)N5CCCCC5)c4c3)CC2)c1C
Concentration 49.75 uM, Number of replicates 2.0, Standard deviation 4.553 %
  inhibition: 18%
Concentration 99.5 uM, Number of replicates 2.0, Standard deviation 2.151 %
  inhibition: 33.8%

## C[C@]1(C(=O)N(CCC(=O)N2CCNCC2)Cc2cccc(Cl)c2)CCCN1
Concentration 49.75 uM, Number of replicates 2.0, Standard deviation 5.247 %
  inhibition: 1.4%
Concentration 99.5 uM, Number of replicates 2.0, Standard deviation 0.402 %
  inhibition: 2.13%

## CC[C@@H]1C[C@@H](C(=O)Nc2ncnc3[nH]c(C)c(C)c23)CCO1
Concentration 50.0 uM, Number of replicates 2.0, Standard deviation 1.684 %
  inhibition: 12.1%

## C(=C1CCCCC1)c1ncnc2[nH]ccc12
Concentration 50.0 uM, Number of replicates 2.0, Standard deviation 3.96 %
  inhibition: -5.46%
Concentration 100.0 uM, Number of replicates 2.0, Standard deviation 2.541 %
  inhibition: 3.46%

## O=C(Nc1ccc(C(=O)NCc2c(C(=O)O)[nH]c3ccccc23)cc1)NC1CC1
Concentration 50.0 uM, Number of replicates 2.0, Standard deviation 1.193 %
  inhibition: 86.2%
